Measurements taken from patent EP1268431B1 (Wyeth, priority 2000, dated 2001).
pIC50: −log10 of the molar value.

Experiments:
[1] = system: human adenocarcinoma cell line CaCo-2; assay: Cell Based Screen for Inhibitors of Raf Kinase, CaCo-2 cells; conditions: Homo sapiens, Caco-2, 96 h, CaCo-2, four days, SRB
Procedure: (§1) • Cell Lines: Human adenocarcinoma cell line LoVo which is known to be growth inhibited by low nM concentrations of a reference standard inhibitor of Ras and human adenocarcinoma cell line CaCo-2, which is known to be growth resistant to the same reference compound. • Cell Media: RPMI 1640 with 10% Fetal Bovine Serum supplemented with L-glutamine and Pennicilin/Streptomycin. • Compounds: Supplied usually as a 10 mM stock in 100% DMSO. • Normal Saline: 150 mM NaCl • Trichloroacetic Acid (TCA): 50% (w/v) in water • Sulforhodamine B (SRB): 0.4% (w/v) in 1% Acetic Acid • Tris Base: 10 mM in water
(§2) Cells are plated at 2000 cells per well for cell line LoVo and 1500 cells for cell line CaCo-2 in 96 well plates. Cells are plated in media (200 µl) and allowed to adhere overnight at 37° C. At 24 hours post plating, compounds are added directly at a volume of 0.5 µl. For the qualitative screen (compounds screened at 25 µM) compound is added directly to cells. For the quantitative screen, compound is first diluted in DMSO to generate concentrations of compound or reference standard of: 1, 5, 10 and 25 µM. It is advisable to make the dilutions in an identical 96 well plate so that compounds may be added using a multichannel micropipettor set at 0.5 µl. The cells are then incubated for four days after which the media is removed using a 12 well manifold by first tipping the plate forward at a 45 degree angle and then inserting the manifold in an upright orientation to prevent the tips of the manifold from disturbing cells at the bottom of the plate. 200 µl of normal saline is then added to each well using an 8 well multichannel pipettor, followed by the careful addition of 50 µl of 50% TCA. The plates are then incubated for 2 hours at 4 ° C, after which the supernatant is removed using the same technique as above and the plated washed twice with 200 µl water. The plates are then air dried and 50 µl of SRB stock solution is carefully added so that the entire bottom of each well is covered. This again may be used using an 8 well multichannel pipettor. The SRB is incubated with fixed cells for 15 minutes at room temperature after which the SRB is removed with the manifold as described above and the plates washed twice with 350 µl of 1% acetic acid per well each time.The plates are then air dried after which the bound SRB is released from protein by the addition of 200 µl of Tris base. Resolubilizing the SRB is aided by placing the plates on a rotator for 15-30 minutes. The absorbance of each well is determined at 550 or 562 nm using a microtiter plate reader.
(§3) Each compound or dilution thereof is performed in triplicate. Outliers are identified by visual inspection of the data. Each plate should have a "0" control (vehicle only).
(§4) Quantitative Assay: A standard curve is constructed by plotting the concentration of compound against the average absorbance calculated at that concentration. A curve is plotted and the concentration at which the curve passes through the 50% the absorbance mark seen in the "0" control well is the IC50 calculated for that compound. […]

[2] = system: Human adenocarcinoma cell line LoVo; assay: Cell Based Screen for Inhibitors of Raf Kinase, LoVo cells; conditions: Homo sapiens, 96 h, four days, SRB
Procedure: as §1, §2, §3, §4

| pIC50 [1] | pIC50 [2] | Compound |
| --- | --- | --- |
| < 6.00 | 8.17 | CN1CCN(Cc2ccc(-c3ccc4c(Nc5ccc(Sc6nccn6C)c(Cl)c5)c(C#N)cnc4c3)cc2)CC1 [Example 135, 4-{3-chloro-4-[(1-methyl-1H-imidazol-2-yl)sulfanyl]anilino}-7-{4-[(4-methyl-1-piperazinyl)methyl]phenyl}-3-quinolinecarbonitrile] |
| < 5.00 | 5.43 | N#Cc1cnc2cc(-c3csc(CN4CCOCC4)c3)ccc2c1Nc1ccc(Oc2ccccc2)cc1 [Example 7, 7-[5-(4-Morpholinylmethyl)-3-thienyl]-4-(4-phenoxyanilino)-3-quinolinecarbonitrile] |
| < 6.00 | 6.55 | CN1CCN(Cc2ccnc(-c3ccc4c(Nc5ccc(Sc6nccn6C)c(Cl)c5)c(C#N)cnc4c3)c2)CC1 [Example 206, 4-({3-chloro-4-[(1-methyl-1H-imidazol-2-yl)sulfanyl]phenyl}amino)-7-{4-[(4-methyl-1-piperazinyl)methyl]-2-pyridinyl}-3-quinolinecarbonitrile] |
| < 6.00 | 7.31 | Cn1ccnc1Sc1ccc(Nc2c(C#N)cnc3cc(-c4ccc(CN5CCN(C(=O)OC(C)(C)C)CC5)cc4)ccc23)cc1Cl [Example 137, tert-butyl 4-{4-[4-({3-chloro-4-[(1-methyl-1H-imidazol-2-yl)sulfanyl]phenyl}amino)-3-cyano-7-quinolinyl]benzyl}-1-piperazinecarboxylate] |
| < 6.00 | 8.11 | CCN1CCN(Cc2ccc(-c3ccc4c(Nc5ccc(Sc6nccn6C)c(Cl)c5)c(C#N)cnc4c3)cn2)CC1 [Example 220, 4-({3-chloro-4-[(1-methyl-1H-imidazol-2-yl)sulfanyl]phenyl}amino)-7-{6-[(4-ethyl-1-piperazinyl)methyl]-3-pyridinyl}-3-quinolinecarbonitrile] |
| 5.34 | 5.70 | N#Cc1cnc2cc(-c3cc(CN4CCOCC4)c(CN4CCOCC4)s3)ccc2c1Nc1ccc(Oc2ccccc2)cc1 [Example 168, 7-[4,5-bis(4-morpholinylmethyl)-2-thienyl]-4-(4-phenoxyanilino)-3-quinolinecarbonitrile] |
| < 6.00 | 7.12 | COc1cc2c(Nc3ccc(Sc4nccn4C)c(Cl)c3)c(C#N)cnc2cc1-c1csc(CN2CCN(C)CC2)c1 [Example 126, 4-{3-Chloro-4-[(1-methyl-1H-imidazol-2-yl)sulfanyl]anilino}-6-methoxy-7-{5-[(4-methyl-1-piperazinyl)methyl]-3-thienyl}-3-quinolinecarbonitrile] |
| < 6.00 | 7.38 | Cn1ccnc1Sc1ccc(Nc2c(C#N)cnc3cc(-c4ccc(C(=O)N5CCOCC5)cc4)ccc23)cc1Cl [Example 129, 4-({3-Chloro-4-[(1-methyl-1H-imidazol-2-yl)sulfanyl]phenyl}amino)-7-[4-(4-morpholinylcarbonyl)phenyl]-3-quinolinecarbonitrile] |
| < 6.00 | 8.02 | Cn1ccnc1Sc1ccc(Nc2c(C#N)cnc3cc(-c4cccc(CN5CCOCC5)n4)ccc23)cc1Cl [Example 199, 4-{3-chloro-4-[(1-methyl-1H-imidazol-2-yl)sulfanyl]anilino}-7-[6-(4-morpholinylmethyl)-2-pyridinyl]-3-quinolinecarbonitrile] |
| < 6.00 | 7.60 | COC(=O)C1CCN(Cc2ccc(-c3ccc4c(Nc5ccc(Sc6nccn6C)c(Cl)c5)c(C#N)cnc4c3)nc2)CC1 [Example 107, Methyl 1-{[6-(4-{3-chloro-4-[(1-methyl-1H-imidazol-2-yl)sulfanyl]anilino}-3-cyano-7-quinolinyl)-3-pyridinyl]methyl}-4-piperidinecarboxylate] |
| < 6.00 | 6.48 | Cn1ccnc1Sc1ccc(Nc2c(C#N)cnc3cc(-c4ccc(CN5CCC(C(=O)O)CC5)cn4)ccc23)cc1Cl [Example 175, 1-{[6-(4-{3-chloro-4-[(1-methyl-1H-imidazol-2-yl)sulfanyl]anilino}-3-cyano-7-quinolinyl)-3-pyridinyl]methyl}-4-piperidinecarboxylic acid] |
